The molecules below were run against T1, sGC α1/β1 heterodimer (Homo sapiens, UniProt Q02108+Q02153) (assay: Cell-Based sGC Functional Assay (CASA Assay), cGMP generation in CHO-K1/sGC cells). Settings: maximum cGMP production of Compound A set to 100% activation, read-out: % Act. (percent activation relative to Compound A).
T1 construct: expressed in transfected cells
T1 sequence (Q02108 1-690): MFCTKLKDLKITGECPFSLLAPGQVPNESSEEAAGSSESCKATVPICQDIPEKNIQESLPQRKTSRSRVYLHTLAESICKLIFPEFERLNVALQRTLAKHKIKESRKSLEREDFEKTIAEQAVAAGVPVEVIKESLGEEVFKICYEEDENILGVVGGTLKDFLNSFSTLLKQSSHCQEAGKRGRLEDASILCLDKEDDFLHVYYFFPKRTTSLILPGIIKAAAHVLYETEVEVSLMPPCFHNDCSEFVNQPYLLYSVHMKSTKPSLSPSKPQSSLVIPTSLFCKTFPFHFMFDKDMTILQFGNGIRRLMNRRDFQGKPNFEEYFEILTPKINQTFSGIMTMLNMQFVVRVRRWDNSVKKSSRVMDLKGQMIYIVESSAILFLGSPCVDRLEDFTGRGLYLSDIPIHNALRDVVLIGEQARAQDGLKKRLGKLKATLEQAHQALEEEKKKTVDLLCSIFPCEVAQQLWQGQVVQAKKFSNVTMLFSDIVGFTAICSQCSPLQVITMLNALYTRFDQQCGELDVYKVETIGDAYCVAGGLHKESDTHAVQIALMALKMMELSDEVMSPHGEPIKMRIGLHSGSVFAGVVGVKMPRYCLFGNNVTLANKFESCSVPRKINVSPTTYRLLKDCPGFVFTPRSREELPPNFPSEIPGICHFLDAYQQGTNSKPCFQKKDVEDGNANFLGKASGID
T1 sequence (Q02153 1-619): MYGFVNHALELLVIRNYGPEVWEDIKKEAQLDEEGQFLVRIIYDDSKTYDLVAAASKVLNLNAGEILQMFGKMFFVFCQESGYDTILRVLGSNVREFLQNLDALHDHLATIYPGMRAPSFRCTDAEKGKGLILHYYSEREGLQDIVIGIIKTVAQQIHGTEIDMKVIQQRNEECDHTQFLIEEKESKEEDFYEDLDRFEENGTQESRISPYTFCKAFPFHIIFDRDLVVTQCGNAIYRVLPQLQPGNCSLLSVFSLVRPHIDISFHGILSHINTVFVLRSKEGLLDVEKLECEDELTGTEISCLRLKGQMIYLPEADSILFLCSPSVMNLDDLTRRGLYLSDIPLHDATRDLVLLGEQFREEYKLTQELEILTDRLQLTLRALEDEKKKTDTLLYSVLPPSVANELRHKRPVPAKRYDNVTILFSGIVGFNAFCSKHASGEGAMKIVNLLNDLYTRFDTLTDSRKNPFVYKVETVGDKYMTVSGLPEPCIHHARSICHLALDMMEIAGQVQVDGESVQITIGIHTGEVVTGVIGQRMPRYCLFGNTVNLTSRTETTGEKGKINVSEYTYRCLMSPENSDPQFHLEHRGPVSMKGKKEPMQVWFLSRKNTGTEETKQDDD
Description: sGC is a heme-containing enzyme that converts GTP to secondary messenger cGMP. Increases in cGMP levels affect several physiological processes including vasorelaxation through multiple downstream pathways. […] Heme-dependent activators (HDAs) preferentially activate sGC containing a ferrous heme group. To determine the effect of sGC activators on enzyme activity, the CASA assay was developed to monitor the generation of cGMP in a cell line that stably expresses the heterodimeric sGC protein.
A CHO-K1 cell line stably expressing the sGC α1/β1 heterodimer was generated using a standard transfection protocol. CHO-K1 cells were transfected with plasmids pIREShyghsGCα1 and pIRESneo-hsGCβ1 simultaneously using FUGENE reagent. Clones that stably express both subunits were selected with hygromycin and neomycin for ˜2 weeks. Clone #7 was chosen for the assay and was designated CHO-K1/sGC. CHO-K1/sGC cells were maintained in F-K12 medium containing 10% heat-inactivated Fetal Bovine Serum (FBS), 100 μg/mL penicillin/streptomycin, 0.5 mg/mL hygromycin and 0.25 mg/mL G418. The cells were then cryopreserved in LN2. On the day of the assay, cells thawed and resuspended in EBSS Assay Buffer (Sigma, E3024) supplemented with 5 mM MgCl2, 10 mM HEPES (4-(2-hydroxyethyl)piperazine-1-ethanesulfonic acid) and 0.05% BSA (bovine serum albumin) (EAB) and cell density was then adjusted to 4×10^5/mL with EAB. IBMX (3-isobutyl-1-methylxanthin, 0.5 mM) was added to inhibit degradation of cGMP. Compounds were diluted from DMSO stock solutions and added to the assay at a final DMSO concentration of 2.5%. Cells were incubated with compounds in the presence and absence of 1 μM of Diethylenetriamine/nitric oxide adduct (DETA-NO; Sigma, 17018) for 1 hr at 37° C. At the end of the incubation period, the reaction was terminated and the cells were lysed with the detection reagents from Cisbio Kits. The level of intracellular cGMP was determined using an HTRF-based assay kit (CisBio, 62GM2PEC), which detects the displacement of a fluorescence labeled cGMP from its specific antibody. The cGMP produced by test compounds was directly compared to the maximum cGMP production (this value was set to equal 100% activation.) of the published sGC-HDA Compound A:
[drawing 298] (Example 1 in WO 2010/065275, published Jun. 10, 2010). The test compounds' activities were then expressed as a percentage of Compound A, the standard in every experiment. This percent activation was calculated either in the presence or absence of DETA-NO which was then plotted. IP and maximum fold induction was derived using ADA analysis software for 4P fit.
In the case of CC1(c2ccc(C(F)F)cn2)C(=O)Nc2nc(-c3cn4ncnc4c(CCCC(F)(F)F)n3)nc(O)c21 (centres unmarked) [Example 181B, 4-hydroxy-5-(5-(difluoromethyl)pyridin-2-yl)-5-methyl-2-(8-(4,4,4-trifluorobutyl)-[1,2,4]triazolo[1,5-a]pyrazin-6-yl)-5H-pyrrolo[2,3-d]pyrimidin-6(7H)-one], the Emax is reported as 55%.
CC1(c2ccc(C(F)F)cn2)C(=O)Nc2nc(-c3cn4ncnc4c(CCCC(F)(F)F)n3)nc(N)c21 (centres unmarked) [Example 43B, 4-amino-5-(5-(difluoromethyl)pyridin-2-yl)-5-methyl-2-(8-(4,4,4-trifluorobutyl)-[1,2,4]triazolo[1,5-a]pyrazin-6-yl)-5H-pyrrolo[2,3-d]pyrimidin-6(7H)-one] showed an Emax of 69%.
In the case of C[C@@]1(c2ccc(F)cc2)C(=O)Nc2nc(-c3cn4ncnc4c(Cc4ccc(F)cc4)n3)nc(O)c21 [Example 162B, (S)-2-(8-(4-fluorobenzyl)-[1,2,4]triazolo[1,5-a]pyrazin-6-yl)-5-(4-fluorophenyl)-4-hydroxy-5-methyl-5H-pyrrolo[2,3-d]pyrimidin-6(7H)-one], the Emax is reported as 100%.
Work on Nc1nc(-c2cn3ncnc3c(CCC(F)(F)C(F)(F)F)n2)nc2c1C(c1cn(C3CC3)nn1)(C1CC1)C(=O)N2 (centres unmarked) [Example 96B, 4-amino-5-cyclopropyl-5-(1-cyclopropyl-1H-1,2,3-triazol-4-yl)-2-(8-(3,3,4,4,4-pentafluorobutyl)-[1,2,4]triazolo[1,5-a]pyrazin-6-yl)-5H-pyrrolo[2,3-d]pyrimidin-6(7H)-one] yielded an Emax of 108%.
Work on Nc1nc(-c2cn3ncnc3c(CCC(F)(F)F)n2)nc2c1C(c1ccc(Cl)cn1)(C1CC1)C(=O)N2 (centres unmarked) [Example 82A, 4-amino-5-(5-chloropyridin-2-yl)-5-cyclopropyl-2-(8-(3,3,3-trifluoropropyl)-[1,2,4]triazolo[1,5-a]pyrazin-6-yl)-5H-pyrrolo[2,3-d]pyrimidin-6(7H)-one] yielded an Emax of 125%.
CCCc1nc(-c2nc(N)c3c(n2)NC(=O)C3(c2ccc(Cl)cn2)C2CC2)cn2ncnc12 (centres unmarked) [Example 57A, 4-amino-5-(5-chloropyridin-2-yl)-5-cyclopropyl-2-(8-propyl-[1,2,4]triazolo[1,5-a]pyrazin-6-yl)-5H-pyrrolo[2,3-d]pyrimidin-6(7H)-one] gave an Emax of 119%.
With CCCCc1nc(-c2nc(N)c3c(n2)NC(=O)C3(C)c2ccc(Cl)cn2)cn2ncnc12 (centres unmarked) [Example 69A, 4-amino-2-(8-butyl-[1,2,4]triazolo[1,5-a]pyrazin-6-yl)-5-(5-chloropyridin-2-yl)-5-methyl-5H-pyrrolo[2,3-d]pyrimidin-6(7H)-one] the Emax was 158%.
With CCCc1nc(-c2nc(O)c3c(n2)NC(=O)C3(c2ccc(F)c(F)c2)C2CC2)cn2ncnc12 (centres unmarked) [Example 167A, 5-cyclopropyl-5-(3,4-difluorophenyl)-4-hydroxy-2-(8-propyl-[1,2,4]triazolo[1,5-a]pyrazin-6-yl)-5H-pyrrolo[2,3-d]pyrimidin-6(7H)-one] the Emax was 70%.
Work on CC1(c2ccc(Cl)c(F)c2)C(=O)Nc2nc(-c3cn4ncnc4c(CCC(F)(F)F)n3)nc(O)c21 (centres unmarked) [Example 153B, 5-(4-chloro-3-fluorophenyl)-4-hydroxy-5-methyl-2-(8-(3,3,3-trifluoropropyl)-[1,2,4]triazolo[1,5-a]pyrazin-6-yl)-5H-pyrrolo[2,3-d]pyrimidin-6(7H)-one] yielded an Emax of 104%.
CC1(c2ccccn2)C(=O)Nc2nc(-c3cn4ncnc4c(CCC(F)(F)C(F)(F)F)n3)nc(O)c21 (centres unmarked) [Example 127B, 4-hydroxy-5-methyl-2-(8-(3,3,4,4,4-pentafluorobutyl)-[1,2,4]triazolo[1,5-a]pyrazin-6-yl)-5-(pyridin-2-yl)-5H-pyrrolo[2,3-d]pyrimidin-6(7H)-one] showed an Emax of 129%.
CC1(c2ccccn2)C(=O)Nc2nc(-c3cn4ncnc4c(CCCC(F)(F)F)n3)nc(O)c21 (centres unmarked) [Example 145B, 4-hydroxy-5-methyl-5-(pyridin-2-yl)-2-(8-(4,4,4-trifluorobutyl)-[1,2,4]triazolo[1,5-a]pyrazin-6-yl)-5H-pyrrolo[2,3-d]pyrimidin-6(7H)-one] was tested, and the Emax was 64%.
In the case of Cc1nnc(C2(C)C(=O)Nc3nc(-c4cn5ncnc5c(CCC(F)(F)C(F)(F)F)n4)nc(N)c32)o1 (single isomer, unassigned) [Example 97B, 4-Amino-5-methyl-5-(5-methyl-1,3,4-oxadiazol-2-yl)-2-(8-(3,3,4,4,4-pentafluorobutyl)-[1,2,4]triazolo[1,5-a]pyrazin-6-yl)-5H-pyrrolo[2,3-d]pyrimidin-6(7H)-one], the Emax is reported as 106%.
CC1(c2ccc(Cl)c(F)c2)C(=O)Nc2nc(-c3cn4ncnc4c(CCCC(F)(F)F)n3)nc(N)c21 (centres unmarked) [Example 28B, 4-amino-5-(4-chloro-3-fluorophenyl)-5-methyl-2-(8-(4,4,4-trifluorobutyl)-[1,2,4]triazolo[1,5-a]pyrazin-6-yl)-5H-pyrrolo[2,3-d]pyrimidin-6(7H)-one] showed an Emax of 171%.
CC(C)Cc1nc(-c2nc(O)c3c(n2)NC(=O)[C@@]3(C)c2ccc(F)cc2)cn2ncnc12 [Example 163A, (S)-5-(4-fluorophenyl)-4-hydroxy-2-(8-isobutyl-[1,2,4]triazolo[1,5-a]pyrazin-6-yl)-5-methyl-5,7-dihydro-6H-pyrrolo[2,3-d]pyrimidin-6-one] showed an Emax of 109%.
In the case of CC1(c2cccc(F)c2)C(=O)Nc2nc(-c3cn4ncnc4c(CCC(F)(F)C(F)(F)F)n3)nc(O)c21 (centres unmarked) [Example 129B, 5-(3-fluorophenyl)-4-hydroxy-5-methyl-2-(8-(3,3,4,4,4-pentafluorobutyl)-[1,2,4]triazolo[1,5-a]pyrazin-6-yl)-5,7-dihydro-6H-pyrrolo[2,3-d]pyrimidin-6-one], the Emax is reported as 66%.
CC1(c2ccc(O)cn2)C(=O)Nc2nc(-c3cn4ncnc4c(CCCC(F)(F)F)n3)nc(N)c21 (centres unmarked) [Example 111A, 4-amino-5-(5-hydroxypyridin-2-yl)-5-methyl-2-(8-(4,4,4-trifluorobutyl)-[1,2,4]triazolo[1,5-a]pyrazin-6-yl)-5H-pyrrolo[2,3-d]pyrimidin-6(7H)-one] was tested, and the Emax was 75%.
O=C1Nc2nc(-c3cn4ncnc4c(CCCC(F)(F)F)n3)nc(O)c2C1(c1ccc(F)cc1)C1CC1 (centres unmarked) [Example 139B, 5-cyclopropyl-5-(4-fluorophenyl)-4-hydroxy-2-(8-(4,4,4-trifluorobutyl)-[1,2,4]triazolo[1,5-a]pyrazin-6-yl)-5H-pyrrolo[2,3-d]pyrimidin-6(7H)-one] was tested, and the Emax was 169%.

Source: patent publication US10925876B2, “Methods for using triazolo-pyrazinyl soluble guanylate cyclase activators in fibrotic disorders” (Merck Sharp & Dohme Corp., priority 2016, dated 2021)
